# Starred links: 1 amine or outer side, 2 acyl side, 3 side chain; linkers in the order of their positions; H or OH if unused. Non-standard residues stand in square brackets, D forms with d. Residues, ends and D or L forms follow the SMILES beside them. Groups on a side chain read outwards from the residue. *: point of attachment. C20 diacid = O=C(O)CCCCCCCCCCCCCCCCCCC(=O)*; C18 diacid = O=C(O)CCCCCCCCCCCCCCCCC(=O)*; γGlu = O=C(O)[C@H](CCC(=O)[*:2])N[*:1]; αMeF = C[C@](N)(Cc1ccccc1)C(=O)O; AEEA = NCCOCCOCC(=O)O; Aib = CC(C)(N)C(=O)O
# Assays:
# [1] = molecular target: human GLP-1 receptor (hGLP-1R) (Homo sapiens, UniProt P43220); assay: cAMP production (HTRF) in CHO cells expressing hGLP-1R; format: cell-based; parameters: expressed in transfected cells; conditions: for % Relative Potency Ratio: % GLP-1R activity relative to GLP-1 / % GlucR activity relative to glucagon; for EC50: cAMP, CHO cells, 0.1% BSA, geometric mean, read-out: hGLP-1R EC50
# Outline: (§1)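 Cells were resuspended in assay buffer at batch-optimized density, typically 1×10^5 cells/mL for hGLP-1R and 2×10^5 cells/mL for hGCGR. After 30 min incubation at room temperature with compound, cAMP was measured by two-step HTRF. EC50 values came from 4-parameter logistic fits of % Delta F.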
# [2] = molecular target: human glucagon receptor (hGCGR) (Homo sapiens, UniProt P47871); assay: cAMP production (HTRF) in CHO cells expressing hGCGR; format: cell-based; parameters: expressed in transfected cells; conditions: cAMP, CHO cells, 0.1% BSA, geometric mean; read-out: hGluc-R EC50
# Outline: as §1
# Chain of human GLP-1 receptor (hGLP-1R) (P43220 24-463): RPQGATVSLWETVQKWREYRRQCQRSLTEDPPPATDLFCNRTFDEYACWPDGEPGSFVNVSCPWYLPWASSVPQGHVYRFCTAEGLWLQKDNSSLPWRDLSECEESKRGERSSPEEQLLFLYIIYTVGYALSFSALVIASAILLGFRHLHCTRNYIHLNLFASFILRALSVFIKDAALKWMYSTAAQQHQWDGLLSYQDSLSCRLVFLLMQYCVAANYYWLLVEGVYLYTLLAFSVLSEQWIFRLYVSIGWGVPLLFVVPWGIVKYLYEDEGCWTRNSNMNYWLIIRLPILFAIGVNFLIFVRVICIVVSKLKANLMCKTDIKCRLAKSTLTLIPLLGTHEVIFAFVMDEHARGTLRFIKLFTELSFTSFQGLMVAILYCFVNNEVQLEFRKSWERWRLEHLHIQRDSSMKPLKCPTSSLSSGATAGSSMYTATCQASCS
# Chain of human glucagon receptor (hGCGR) (P47871 26-477): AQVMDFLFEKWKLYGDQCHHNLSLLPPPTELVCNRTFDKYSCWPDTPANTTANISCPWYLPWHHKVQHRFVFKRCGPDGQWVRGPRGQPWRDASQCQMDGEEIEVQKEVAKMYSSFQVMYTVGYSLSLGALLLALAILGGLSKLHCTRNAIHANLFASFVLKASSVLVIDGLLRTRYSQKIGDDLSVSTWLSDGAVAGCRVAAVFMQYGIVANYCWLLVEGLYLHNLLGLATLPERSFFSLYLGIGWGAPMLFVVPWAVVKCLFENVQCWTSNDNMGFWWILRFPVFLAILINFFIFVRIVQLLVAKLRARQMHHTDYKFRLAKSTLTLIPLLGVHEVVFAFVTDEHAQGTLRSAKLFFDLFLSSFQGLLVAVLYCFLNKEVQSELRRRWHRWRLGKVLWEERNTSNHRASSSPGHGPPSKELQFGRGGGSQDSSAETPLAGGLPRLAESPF
Structure (SMILES),% Relative Potency Ratio [1],EC50 [1] [pM],EC50 [2] [pM]
CC[C@H](C)[C@H](NC(=O)C(C)(C)NC(=O)[C@H](CCCCNC(=O)COCCOCCNC(=O)COCCOCCNC(=O)CC[C@H](NC(=O)CC[C@H](NC(=O)CCCCCCCCCCCCCCCCC(=O)O)C(=O)O)C(=O)O)NC(=O)[C@@H](NC(=O)[C@](C)(Cc1ccccc1)NC(=O)[C@H](CC(=O)O)NC(=O)[C@H](CCC(N)=O)NC(=O)[C@H](C)NC(=O)[C@H](C)NC(=O)[C@H](CCCNC(=N)N)NC(=O)[C@H](CO)NC(=O)[C@H](CC(=O)O)NC(=O)[C@H](CC(C)C)NC(=O)[C@](C)(Cc1ccccc1)NC(=O)[C@H](CCCCN)NC(=O)[C@H](CO)NC(=O)[C@@H](NC(=O)[C@H](CC(=O)O)NC(=O)[C@H](CO)NC(=O)[C@@H](NC(=O)[C@](C)(Cc1ccccc1)NC(=O)[C@H](CO)NC(=O)CNC(=O)[C@H](Cc1c[nH]cn1)NC(=O)C(C)(C)NC(=O)[C@@H](N)Cc1c[nH]cn1)[C@@H](C)O)C(C)C)C(C)C)C(=O)N[C@@H](C)C(=O)N[C@@H](CC(N)=O)C(=O)N[C@H](C(=O)NCC(=O)NCC(N)=O)[C@@H](C)O [Peptide 373] (H-H[Aib]HGS[αMeF]TSDVSK[αMeF]LDSRAAQD[αMeF]VK([AEEA-AEEA-γGlu-γGlu-C18 diacid])[Aib]IANTGG-NH2; N-terminus assumed),7.2,66.7,242
CC[C@H](C)[C@H](NC(=O)[C@H](Cc1c[nH]c2ccccc12)NC(=O)[C@H](CCCCNC(=O)COCCOCCNC(=O)COCCOCCNC(=O)CC[C@H](NC(=O)CC[C@H](NC(=O)CCCCCCCCCCCCCCCCCCC(=O)O)C(=O)O)C(=O)O)NC(=O)[C@@H](NC(=O)[C@](C)(Cc1ccccc1)NC(=O)[C@H](CC(=O)O)NC(=O)[C@H](CCC(N)=O)NC(=O)[C@H](C)NC(=O)[C@H](C)NC(=O)[C@H](CCCNC(=N)N)NC(=O)[C@H](CO)NC(=O)[C@H](CC(=O)O)NC(=O)[C@H](CC(C)C)NC(=O)[C@](C)(Cc1ccccc1)NC(=O)[C@H](CCCCN)NC(=O)[C@H](CO)NC(=O)[C@@H](NC(=O)[C@H](CC(=O)O)NC(=O)[C@H](CO)NC(=O)[C@@H](NC(=O)[C@](C)(Cc1ccccc1)NC(=O)[C@H](CO)NC(=O)CNC(=O)[C@H](Cc1c[nH]cn1)NC(=O)C(C)(C)NC(=O)[C@@H](N)Cc1c[nH]cn1)[C@@H](C)O)C(C)C)C(C)C)C(=O)N[C@@H](C)C(=O)N[C@@H](CC(N)=O)C(=O)N[C@H](C(N)=O)[C@@H](C)O [Peptide 374] (H-H[Aib]HGS[αMeF]TSDVSK[αMeF]LDSRAAQD[αMeF]VK([AEEA-AEEA-γGlu-γGlu-C20 diacid])WIANT-NH2; N-terminus assumed),1.2,434,260
CC[C@H](C)[C@H](NC(=O)[C@H](Cc1c[nH]c2ccccc12)NC(=O)[C@H](CCCCNC(=O)COCCOCCNC(=O)COCCOCCNC(=O)CC[C@H](NC(=O)CC[C@H](NC(=O)CCCCCCCCCCCCCCCCCCC(=O)O)C(=O)O)C(=O)O)NC(=O)[C@@H](NC(=O)[C@H](Cc1ccccc1)NC(=O)[C@H](CC(=O)O)NC(=O)[C@H](CCC(N)=O)NC(=O)[C@H](C)NC(=O)[C@H](C)NC(=O)[C@H](CCCNC(=N)N)NC(=O)[C@H](CO)NC(=O)[C@H](CC(=O)O)NC(=O)[C@H](CC(C)C)NC(=O)[C@](C)(Cc1ccccc1)NC(=O)[C@H](CCCCN)NC(=O)[C@H](CO)NC(=O)[C@@H](NC(=O)[C@H](CC(=O)O)NC(=O)[C@H](CO)NC(=O)[C@@H](NC(=O)[C@](C)(Cc1ccccc1)NC(=O)[C@H](CO)NC(=O)CNC(=O)[C@H](Cc1c[nH]cn1)NC(=O)C(C)(C)NC(=O)[C@@H](N)Cc1c[nH]cn1)[C@@H](C)O)C(C)C)C(C)C)C(=O)N[C@@H](C)C(=O)N[C@@H](CC(N)=O)C(=O)N[C@H](C(N)=O)[C@@H](C)O [Peptide 377] (H-H[Aib]HGS[αMeF]TSDVSK[αMeF]LDSRAAQDFVK([AEEA-AEEA-γGlu-γGlu-C20 diacid])WIANT-NH2; N-terminus assumed),2.5,150,190
CC[C@H](C)[C@H](NC(=O)[C@H](CO)NC(=O)[C@H](CCCCNC(=O)COCCOCCNC(=O)COCCOCCNC(=O)CC[C@H](NC(=O)CC[C@H](NC(=O)CCCCCCCCCCCCCCCCC(=O)O)C(=O)O)C(=O)O)NC(=O)[C@@H](NC(=O)[C@H](Cc1ccccc1)NC(=O)[C@H](CC(=O)O)NC(=O)[C@H](CCC(N)=O)NC(=O)[C@H](C)NC(=O)[C@H](C)NC(=O)[C@H](CCCNC(=N)N)NC(=O)[C@H](CO)NC(=O)[C@H](CC(=O)O)NC(=O)[C@H](CC(C)C)NC(=O)[C@](C)(Cc1ccccc1)NC(=O)[C@H](CCCCN)NC(=O)[C@H](CO)NC(=O)[C@@H](NC(=O)[C@H](CC(=O)O)NC(=O)[C@H](CO)NC(=O)[C@@H](NC(=O)[C@](C)(Cc1ccccc1)NC(=O)[C@H](CO)NC(=O)CNC(=O)[C@H](Cc1c[nH]cn1)NC(=O)C(C)(C)NC(=O)[C@@H](N)Cc1c[nH]cn1)[C@@H](C)O)C(C)C)C(C)C)C(=O)N[C@@H](C)C(=O)N[C@@H](CC(N)=O)C(=O)N[C@H](C(=O)NCC(=O)NCC(N)=O)[C@@H](C)O [Peptide 381] (H-H[Aib]HGS[αMeF]TSDVSK[αMeF]LDSRAAQDFVK([AEEA-AEEA-γGlu-γGlu-C18 diacid])SIANTGG-NH2; N-terminus assumed),14.9,174,1310

# Results, then the molecule that gave them:
% Relative Potency Ratio [1],EC50 [1] [pM],EC50 [2] [pM],Structure (SMILES)
0.9,191,87.2,CC[C@H](C)[C@H](NC(=O)[C@H](Cc1c[nH]c2ccccc12)NC(=O)[C@H](CCCCNC(=O)COCCOCCNC(=O)COCCOCCNC(=O)CC[C@H](NC(=O)CC[C@H](NC(=O)CCCCCCCCCCCCCCCCC(=O)O)C(=O)O)C(=O)O)NC(=O)[C@@H](NC(=O)[C@](C)(Cc1ccccc1)NC(=O)[C@H](CC(=O)O)NC(=O)[C@H](CCC(N)=O)NC(=O)[C@H](C)NC(=O)[C@H](C)NC(=O)[C@H](CCCNC(=N)N)NC(=O)[C@H](CO)NC(=O)[C@H](CC(=O)O)NC(=O)[C@H](CC(C)C)NC(=O)[C@](C)(Cc1ccccc1)NC(=O)[C@H](CCCCN)NC(=O)[C@H](CO)NC(=O)[C@@H](NC(=O)[C@H](CC(=O)O)NC(=O)[C@H](CO)NC(=O)[C@@H](NC(=O)[C@](C)(Cc1ccccc1)NC(=O)[C@H](CO)NC(=O)CNC(=O)[C@H](Cc1c[nH]cn1)NC(=O)C(C)(C)NC(=O)[C@@H](N)Cc1c[nH]cn1)[C@@H](C)O)C(C)C)C(C)C)C(=O)N[C@@H](C)C(=O)N[C@@H](CC(N)=O)C(=O)N[C@H](C(N)=O)[C@@H](C)O [Peptide 371] (H-H[Aib]HGS[αMeF]TSDVSK[αMeF]LDSRAAQD[αMeF]VK([AEEA-AEEA-γGlu-γGlu-C18 diacid])WIANT-NH2; N-terminus assumed)
2.0,159,158,CC[C@H](C)[C@H](NC(=O)[C@H](CO)NC(=O)[C@H](CCCCNC(=O)COCCOCCNC(=O)COCCOCCNC(=O)CC[C@H](NC(=O)CC[C@H](NC(=O)CCCCCCCCCCCCCCCCC(=O)O)C(=O)O)C(=O)O)NC(=O)[C@@H](NC(=O)[C@](C)(Cc1ccccc1)NC(=O)[C@H](CC(=O)O)NC(=O)[C@H](CCC(N)=O)NC(=O)[C@H](C)NC(=O)[C@H](C)NC(=O)[C@H](CCCNC(=N)N)NC(=O)[C@H](CO)NC(=O)[C@H](CC(=O)O)NC(=O)[C@H](CC(C)C)NC(=O)[C@](C)(Cc1ccccc1)NC(=O)[C@H](CCCCN)NC(=O)[C@H](CO)NC(=O)[C@@H](NC(=O)[C@H](CC(=O)O)NC(=O)[C@H](CO)NC(=O)[C@@H](NC(=O)[C@](C)(Cc1ccccc1)NC(=O)[C@H](CO)NC(=O)CNC(=O)[C@H](Cc1c[nH]cn1)NC(=O)C(C)(C)NC(=O)[C@@H](N)Cc1c[nH]cn1)[C@@H](C)O)C(C)C)C(C)C)C(=O)N[C@@H](C)C(=O)N[C@@H](CC(N)=O)C(=O)N[C@H](C(N)=O)[C@@H](C)O [Peptide 378] (H-H[Aib]HGS[αMeF]TSDVSK[αMeF]LDSRAAQD[αMeF]VK([AEEA-AEEA-γGlu-γGlu-C18 diacid])SIANT-NH2; N-terminus assumed)
2.4,71.8,85.7,CC[C@H](C)[C@H](NC(=O)[C@H](CO)NC(=O)[C@H](CCCCNC(=O)COCCOCCNC(=O)COCCOCCNC(=O)CC[C@H](NC(=O)CCCCCCCCCCCCCCCCC(=O)O)C(=O)O)NC(=O)[C@@H](NC(=O)[C@](C)(Cc1ccccc1)NC(=O)[C@H](CC(=O)O)NC(=O)[C@H](CCC(N)=O)NC(=O)[C@H](C)NC(=O)[C@H](C)NC(=O)[C@H](CCCNC(=N)N)NC(=O)[C@H](CO)NC(=O)[C@H](CC(=O)O)NC(=O)[C@H](CC(C)C)NC(=O)[C@](C)(Cc1ccccc1)NC(=O)[C@H](CCCCN)NC(=O)[C@H](CO)NC(=O)[C@@H](NC(=O)[C@H](CC(=O)O)NC(=O)[C@H](CO)NC(=O)[C@@H](NC(=O)[C@](C)(Cc1ccccc1)NC(=O)[C@H](CO)NC(=O)CNC(=O)[C@H](Cc1c[nH]cn1)NC(=O)C(C)(C)NC(=O)[C@@H](N)Cc1c[nH]cn1)[C@@H](C)O)C(C)C)C(C)C)C(=O)N[C@@H](C)C(=O)N[C@@H](CC(N)=O)C(=O)N[C@H](C(N)=O)[C@@H](C)O [Peptide 379] (H-H[Aib]HGS[αMeF]TSDVSK[αMeF]LDSRAAQD[αMeF]VK([AEEA-AEEA-γGlu-C18 diacid])SIANT-NH2)

# From patent publication US20250353891A1 (MEDIMMUNE LIMITED, priority 2022, published 2025)
